Experimental data from patent EP4585588A1, “BENZIMIDAZOLE COMPOUND, AND PREPARATION METHOD THEREFOR AND USE THEREOF” (Suzhou Pharmavan Co., Ltd., priority 2022, dated 2024).

Tests used:
[1] = system: Primary cardiomyocytes of suckling rats; test: Area measurement of cardiomyocytes after PE injury; type: cell-based; conditions: for cardiomyocyte area compared with the PE group (result in words): 10 µM compound, PE 20 µM for 48 hours; for Cell Area Hypertrophy Multiple (Mean±Standard Deviation) Compared with Control Wells: 48 h, 10 µM
Experimental: Primary cardiomyocytes of suckling rats were isolated and cultured and inoculated on a cell culture plate. A drug stock solution was taken and separately added to cell wells according to a certain dilution ratio, and a final concentration was 10 µM. After half hour of drug action, a phenylephrine (PE) stock solution was added, and a final concentration of PE was 20 µM. After 48 hours of PE action, cell samples were collected for real-time quantitative PCR assay or cell area measurement.
Separation and plating of cardiomyocytes of rats: a certain number of SPF suckling rats were taken and placed in a clean bench according to an actual requirement for the number of cells, thoracic cavities were opened by scissors, hearts were separated, and the hearts were cut into tissue fragments with sterilized surgical scissors; Collagenase Type II (manufacturer: Sigma, article No.: C2-28-100MG) was added to a D-HANKS balanced salt buffer to prepare a […] enzyme digestion solution, and the tissue fragments of hearts were continuously digested for three times in a 37 °C constant-temperature water bath box; about 2 mL of the enzyme digestion solution was added for the first time, a supernatant was discarded after digestion, centrifugation and precipitation of cardiomyocytes and tissue fragments, about 4 mL of the enzyme digestion solution was independently added for the second time and the third time to continue digestion, a supernatant was remained each time, DMEM containing 10% FBS with the same volume as the digestion solution in the supernatant was immediately added to neutralize digestive enzymes, the supernatants for the second time and the third time were combined and centrifuged, a supernatant was discarded, an appropriate amount of DMEM containing 10% FBS was added to resuspend the cardiomyocytes, the cardiomyocytes were inoculated in a 100 mm culture plate and subjected to differential adhesion in a constant-temperature cell incubator for 2 h, and a supernatant was taken for cell count.
Area measurement of cardiomyocytes of rats: a 24-well plate precoated with 1% gelatin was taken and plated at 1.0×10^3 cells/well, 500 µL of a 10% FBS+DMEM medium was contained in each well, and cells were cultured in a 37 °C constant-temperature cell incubator for 24 h; different compounds were independently prepared into a 100 mM mother liquor with DMSO and gradient diluted with a 10% FBS+DMEM medium to prepare a 10 µM final solution of the compound containing […]; the medium in the 24-well plate was discarded and replaced with a 500 µL/well medium containing a 10 µM compound, and three replicate wells and a negative control well were set for each compound; after 0.5 hours of drug action, PE (manufacturer: Meilun Biotechnology; article No.: MB1602) with a final concentration of 20 µM was added to each well, and no PE was added to the negative control wells; after 48 hours of PE action, at least five fields of view were randomly selected from each well under an inverted microscope (manufacturer: Nikon; model: Eclipse TS100), and the cell area data was calculated by Image J software; the area of the cells in the negative control wells was set to 1, the cell area hypertrophy multiples of the PE wells and each administration well were calculated separately, and statistical analysis was performed using the One-Way ANOVA method.
The cardiomyocyte area was directly measured and the differences between the groups were compared for verification. The cardiomyocytes were co-intervened with PE and drugs and placed under a microscope for direct observation, and images were taken. The cell area data was calculated using Image J software. […]

[2] = system: Models of Heart Failure due to Pressure Overload of Mice; test: Pharmacodynamic test in mouse models of heart failure due to pressure overload (thoracic aorta ligation); type: in vivo, C57BL/6 mice; conditions: after four weeks of administration (nine weeks of modeling); for Ejection Fraction (Mean) of Ventriculus Sinister of Heart: Table 5, model group 28.6%; for Ejection Fraction (Mean) of Ventriculus Sinister of Heart / Ejection Fraction (Mean) of Heart: 5 mg/kg intraperitoneal once a day for four consecutive weeks; for effect on the cardiac contractile function (result in words): 5 mg/kg intraperitoneal once a day; for Ejection Fraction (Mean) of Heart: Table 6, model group 29.8%
Experimental: 1.1 Animals healthy C57BL/6 mice
Modeling by thoracic aorta ligation surgery: preoperative echocardiography was performed to exclude mice with abnormal cardiac functions; for mice with normal cardiac functions, anesthesia was performed, and the mice were anesthetized and then transferred into a small animal operating table and fixed; an open airway was established via endotracheal intubation, and anesthesia was maintained; taking the second rib as the center, the skin was cut along the sternum toward the first and third ribs to expose the connection between the second rib and the sternum; the second rib was cut to expose the aorta thoracic segment; the aortic arch was freed, a thin thread was inserted underneath, a thin needle was placed in parallel to the aortic arch for co-ligation; after ligation, the thin needle was withdrawn to observe the condition of the mice, and the mice were sutured layer by layer after stabilization; the mice were placed on the thermal insulation pad to keep warm, and after waking up, the mice were put back into the cage for daily feeding according to the activity.
After five weeks of modeling, echocardiography was performed on the mice to determine the ejection fractions of the hearts of the mice. When the ejection fraction decreased by about 50%, the ejection fraction met the experimental requirements, and the administration experiment started. Animals were grouped randomly and administered according to the ultrasound data, the echocardiography was performed every two weeks until week 9 ended, and pathological section analysis was performed.
The results were expressed using mean±standard error, data analysis was performed using GraphPad Prism statistical software, and the comparison was analyzed using a t-test. P < 0.05 was determined that there was a difference with statistical significance, otherwise P was determined that there was no significant difference.

[3] = system: myosin heavy chain β (β-MHC); conditions: 48 h, 10 µM
Experimental: Separation and plating of cardiomyocytes of rats: a certain number of SPF suckling rats were taken and placed in a clean bench according to an actual requirement for the number of cells, thoracic cavities were opened by scissors, hearts were separated, and the hearts were cut into tissue fragments with sterilized surgical scissors; Collagenase Type II (manufacturer: Sigma, article No.: C2-28-100MG) was added to a D-HANKS balanced salt buffer to prepare a 5 µg/mL enzyme digestion solution, and the tissue fragments of hearts were continuously digested for three times in a 37 °C constant-temperature water bath box; about 2 mL of the enzyme digestion solution was added for the first time, a supernatant was discarded after digestion, centrifugation and precipitation of cardiomyocytes and tissue fragments, about 4 mL of the enzyme digestion solution was independently added for the second time and the third time to continue digestion, a supernatant was remained each time, DMEM containing 10% FBS with the same volume as the digestion solution in the supernatant was immediately added to neutralize digestive enzymes, the supernatants for the second time and the third time were combined and centrifuged, a supernatant was discarded, an appropriate amount of DMEM containing 10% FBS was added to resuspend the cardiomyocytes, the cardiomyocytes were inoculated in a 100 mm culture plate and subjected to differential adhesion in a constant-temperature cell incubator for 2 h, and a supernatant was taken for cell count.
A 24-well plate precoated with 1% gelatin was taken and plated at 1×10^5 cells/well, 500 µL of a 10% FBS+DMEM medium was contained in each well, and cells were cultured in a 37 °C constant-temperature cell incubator for 24 h. Different compounds were independently prepared into a 100 mM mother liquor with DMSO and gradient diluted with a 10% FBS+DMEM medium to prepare a 10 µM final solution of the compound containing 0.5% DMSO. The medium in the 24-well plate was discarded and replaced with a 500 µL/well medium containing a 10 µM compound, and three replicate wells and a negative control well were set for each compound. After 0.5 hours of drug action, PE (manufacturer: Meilun Biotechnology; article No.: MB1602) with a final concentration of 20 µM was added to each well, and no PE was added to the negative control wells; after 48 hours of PE action, sample detection was performed.
Expression levels of genes related to cardiomyocyte hypertrophy was analyzed via real-time quantitative PCR detection of mRNA level of atrial natriuretic peptide (ANP) and myosin heavy chain β (β-MHC). The steps include extraction of total RNA of cells, reverse transcription synthesis of cDNA and real-time quantitative PCR assay.
Based on real-time quantitative PCR detection of an mRNA level of ANP of cardiomyocytes, a drug with a potential of anti-cardiomyocyte hypertrophy was preliminarily screened and verified with an mRNA level of another hypertrophy gene β-MHC using a statistical method One-way ANOVA and statistical software GraphPad Prism.

SMILES | cardiomyocyte area compared with the PE group (result in words) [1] | Cell Area Hypertrophy Multiple (Mean±Standard Deviation) Compared with Control Wells [1] | Ejection Fraction (Mean) of Ventriculus Sinister of Heart [2] | effect on the cardiac contractile function (result in words) [2] | Mean (real-time quantitative PCR validation results of cardiomyocyte β-MHC) [3] | Ejection Fraction (Mean) of Heart [2]
COc1ccc(F)cc1-c1ccc2[nH]cnc2c1 [Formula I-24-A, 5-(5-fluoro-2-methoxyphenyl)-1H-benzimidazole, reference compound] | no apparent improvement effect | 1.77±0.11 | 29.4% | no apparent improvement effect | – | –
Cc1nc2cc(-c3cc(F)cc(C#N)c3O)ccc2[nH]1 [Formula I-3, 5-fluoro-2-hydroxy-3-(2-methyl-1H-benzimidazol-5-yl)benzonitrile] | – | 1.07±0.15 | 37.8% | – | 1.24 | –
CCCc1cc(C#N)c(C(C)(C)O)c(-c2ccc3nc[nH]c3c2)c1 [Formula II-48] | – | 1.07±0.20 | – | – | – | 41.4%
CCCc1cc(C#N)c(CO)c(-c2ccc3[nH]cnc3c2)c1 [Formula II-144, 2-(hydroxymethyl)-3-(1H-benzimidazol-5-yl)-5-propylbenzonitrile] | – | 1.12±0.13 | – | – | 1.39 | 41.5%
Cc1nc2cc(-c3cc(C(N)=O)ccc3O)ccc2[nH]1 [Formula I-4, 4-hydroxy-3-(2-methyl-1H-benzimidazol-5-yl)benzamide] | – | 1.27±0.34 | 35.4% | – | 1.15 | –
Cc1nc2cc(-c3cc(F)cc(C#N)c3C(C)(C)O)ccc2[nH]1 [Formula II-3, 5-fluoro-2-(2-hydroxypropan-2-yl)-3-(2-methyl-1H-benzimidazol-5-yl)benzonitrile] | – | 1.28±0.10 | – | – | 1.28 | 40.1%
CC(O)c1ccc(F)cc1-c1ccc2[nH]cnc2c1 (stereo not drawn) [Formula II-73, 1-(4-fluoro-2-(1H-benzimidazol-5-yl)phenyl)ethane-1-ol] | – | 1.17±0.16 | – | – | – | 40.5%
Cc1nc2cc(-c3cc(F)cc(F)c3C(C)(C)O)ccc2[nH]1 [Formula II-2, 2-(2,4-difluoro-6-(2-methyl-1H-benzimidazol-5-yl)phenyl)propane-2-ol] | – | 1.33±0.11 | – | – | 1.42 | 37.3%
Cc1nc2cc(-c3cc(C(N)=O)cc(F)c3O)ccc2[nH]1 [Formula I-5, 3-fluoro-4-hydroxy-5-(2-methyl-1H-benzimidazol-5-yl)benzamide] | – | 1.50±0.15 | 39.7% | – | 1.25 | –
Cc1nc2cc(-c3cc(F)ccc3C(C)(C)O)ccc2[nH]1 [Formula II-1, 2-(4-fluoro-2-(2-methyl-1H-benzimidazol-5-yl)phenyl)propane-2-ol] | – | 1.39±0.30 | – | – | 1.32 | 38.7%
Cc1nc2cc(-c3cc(C(=O)O)ccc3O)ccc2[nH]1 [Formula I-48, 4-hydroxy-3-(2-methyl-1H-benzimidazol-5-yl)benzoic acid] | – | 1.06±0.08 | 37.2% | – | 1.58 | –
Cn1cnc2cc(-c3cc(F)ccc3O)ccc21 [Formula I-24-B, 4-fluoro-2-(1-methyl-1H-benzimidazol-5-yl)phenol, reference compound] | no apparent improvement effect | 1.81±0.20 | 27.2% | no apparent improvement effect | – | –
Cc1nc2cc(-c3cc(F)cc(F)c3O)ccc2[nH]1 [Formula I-2, 2,4-difluoro-6-(2-methyl-1H-benzimidazol-5-yl)phenol] | – | 1.18±0.16 | 38.3% | – | 1.21 | –
Oc1ccccc1-c1cc(F)c2[nH]cnc2c1 [Formula I-24-C, 2-(7-fluoro-1H-benzimidazol-5-yl)phenol, reference compound] | no apparent improvement effect | 1.95±0.08 | 30.7% | no apparent improvement effect | – | –
Cc1nc2cc(-c3cc(C(=O)N(C)C)ccc3C(C)(C)O)ccc2[nH]1 [Formula II-7, 4-(2-hydroxypropan-2-yl)-N,N-dimethyl-3-(2-methyl-1H-benzimidazol-5-yl)benzamide] | – | 1.14±0.14 | – | – | 1.15 | 39.6%
Oc1ccc(F)cc1-c1ccc2[nH]cnc2c1 [Formula I-24, 4-fluoro-2-(1H-benzimidazol-5-yl)phenol] | – | 1.36±0.12 | 40.0% | – | – | –
CCCc1cc(C#N)c(C(C)O)c(-c2ccc3[nH]cnc3c2)c1 (stereo not drawn) [Formula II-96, 2-(1-hydroxyethyl)-3-(1H-benzimidazol-5-yl)-5-propylbenzonitrile] | – | 1.49±0.10 | – | – | 1.38 | 36.8%
Cc1nc2cc(-c3cc(F)ccc3O)ccc2[nH]1 [Formula I-1, 4-fluoro-2-(2-methyl-1H-benzimidazol-5-yl)phenol] | – | 1.42±0.16 | 37.2% | – | 1.21 | –
OCc1ccc(F)cc1-c1ccc2[nH]cnc2c1 [Formula II-121, (4-fluoro-2-(1H-benzimidazol-5-yl)phenyl)methanol] | – | 1.48±0.09 | – | – | 1.25 | 42.2%
